According to patent publication US8404703B2, “Medicinal compositions containing aspirin” (Daiichi Sankyo Company, Limited, priority 2000, dated 2013):

Test system: thrombogenesis or thrombus formation
Assay: Inhibitory activity against thrombogenesis, modified arterio-venous shunt thrombosis model in rats
Type: in vivo, male Sprague Dawley rats
Conditions: oral, shunt circulation started 2 h after administration, 30 min circulation, average ±SE (n=6)
Description: As the test animals, male Sprague Dawley rats of 7 weeks old were purchased from SLC Japan and 6 rats per group were used.
2-Acetoxy-5-(α-cyclopropylcarbonyl-2-fluorobenzyl)-4,5,6,7-tetrahydrothieno[3,2-c]pyridine was synthesized according to the method described in the Specification of Japanese Patent Application Publication No. Hei 6-41139 and was used, while aspirin was purchased from Sigma Chemical Co. and was used. Both compounds were suspended in 5% (w/v) gum arabic solution, and were diluted so as to be 1 ml/kg of administration volume and were orally administered.
The inhibitory activities of the compounds against thrombogenesis or thrombus formation were evaluated in the modified arterio-venous shunt thrombosis model in rats, which was described by Umetsu et al. [Thromb. Haemost., 39, 74-83 (1978)].
The shunt tube was prepared as follows; i.e., both sides of a medical silicon tube of 12 cm length [inner diameter: 1.5 mm, outer diameter: 2.5 mm, purchased from KANEKA Medix Co., Ltd] were connected each to a polyethylene tube of 7 cm length [inner diameter: 0.5 mm, outer diameter: 1.0 mm, purchased from Natsume Seisakusho Co., Ltd.] covered with silicon via a medical silicon tube of 0.7 cm length [inner diameter: 1.0 mm, outer diameter: 1.5 mm, KANEKA Medix Co., Ltd] as connector. A surgical suture of 10 cm length was placed in the silicon tube of 12 cm length.
The animal was anesthetized with an intraperitoneal injection of 40 mg/kg of pentobarbital sodium (purchased from Abbott Laboratories Inc.), and the jugular of one side and the carotid of the other side were exposed. The arteriovenous shunt was made by cannulation of a shunt tube filled with heparin solution [[…], purchased from Fuso Pharmaceutical Co., Ltd] into the carotid and the jugular which had been previously exposed.
The test compounds were orally administered and the blood was started to circulate into the shunt area two hours after the administration. Thirty minutes after the circulation was started, the shunt tube was removed, and the thrombus adsorbed on the surgical suture was weighed. The results in the table are expressed as the average weight ±SE (n=6).

SMILES	Inhibition Rate (Compound A 0.3 mg/kg alone)	Thrombus Weight (Compound A 0.3 mg/kg alone)	Inhibition Rate (Compound A 0.6 mg/kg alone)	Thrombus Weight (Compound A 0.6 mg/kg alone)	Inhibition Rate (Aspirin 10 mg/kg alone)	Thrombus Weight (Aspirin 10 mg/kg alone)
CC(=O)Oc1cc2c(s1)CCN(C(C(=O)C1CC1)c1ccccc1F)C2 (stereo not drawn) [Compound A, 2-Acetoxy-5-(α-cyclopropylcarbonyl-2-fluorobenzyl)-4,5,6,7-tetrahydrothieno[3,2-c]pyridine]	17.0 ± 4.1%	43.5 ± 2.1 mg	28.3 ± 4.0%	37.5 ± 2.1 mg		
CC(=O)Oc1ccccc1C(=O)O [Aspirin, aspirin]					12.3 ± 4.4%	46.6 ± 2.8 mg
